From patent US20250352520A1, “USE OF DEXPRAMIPEXOLE FOR THE TREATMENT OF EOSINOPHILIC COPD” (Areteia Therapeutics, Inc., priority 2024, published 2025)

Details: Week 8; <50% AEC reduction at Week 16

With `CCCN[C@@H]1CCc2nc(N)sc2C1` [Dexpramipexole, (6R)-2-amino-4,5,6,7-tetrahydro-6-(propylamino)benzothiazole] as the molecule, how does the “Pre-BD FEF25-75 % change from baseline, Max” value read?
The value was 58%.

And the “Pre-BD FEF25-75 % change from baseline, Mean ± SD” value?
Its value is 30.4 ± 31.72%.

What about the “Pre-BD FEF25-75 % change from baseline, Median” value of the same molecule?
Its value is 38.4%.

What about the “Pre-BD FEF25-75 % change from baseline, Min” value of the same molecule?
The value was −14%.

What about the “Pre-BD FEF25-75 % change from baseline, Q1” value of the same molecule?
Its value is 8%.

And the “Pre-BD FEF25-75 % change from baseline, Q3” value?
The value was 53%.

And the “Pre-BD FEF25-75 Observed, Max” value?
The value was 2050 mL/s.

What about the “Pre-BD FEF25-75 Observed, Mean ± SD” value of the same molecule?
Its value is 875.0 ± 790.55 mL/s.

And the “Pre-BD FEF25-75 Observed, Median” value?
The value was 535.0 mL/s.

And the “Pre-BD FEF25-75 Observed, Min” value?
The value was 380 mL/s.

And the “Pre-BD FEF25-75 Observed, Q1” value?
Its value is 410 mL/s.

And the “Pre-BD FEF25-75 Observed, Q3” value?
The value was 1340 mL/s.

What about the “Pre-BD FEF25-75 change from baseline, Max” value of the same molecule?
Its value is 660 mL/s.

And the “Pre-BD FEF25-75 change from baseline, Mean ± SD” value?
Its value is 200.0 ± 324.14 mL/s.

And the “Pre-BD FEF25-75 change from baseline, Median” value?
The value was 120.0 mL/s.

What about the “Pre-BD FEF25-75 change from baseline, Min” value of the same molecule?
Its value is -100 mL/s.

And the “Pre-BD FEF25-75 change from baseline, Q1” value?
The value was 0 mL/s.

And the “Pre-BD FEF25-75 change from baseline, Q3” value?
The value was 400 mL/s.

What about the “Pre-BD FEV1 % change from baseline, Max” value of the same molecule?
Its value is 41%.

And the “Pre-BD FEV1 % change from baseline, Mean ± SD” value?
The value was 16.0 ± 19.59%.

And the “Pre-BD FEV1 % change from baseline, Median” value?
Its value is 13.2%.

And the “Pre-BD FEV1 % change from baseline, Min” value?
The value was −4%.

And the “Pre-BD FEV1 % change from baseline, Q1” value?
Its value is 1%.

And the “Pre-BD FEV1 % change from baseline, Q3” value?
Its value is 31%.

What about the “Pre-BD FEV1 Observed, Max” value of the same molecule?
Its value is 2940 mL.

What about the “Pre-BD FEV1 Observed, Mean ± SD” value of the same molecule?
Its value is 1755.0 ± 860.79 mL.

What about the “Pre-BD FEV1 Observed, Median” value of the same molecule?
Its value is 1600.0 mL.

And the “Pre-BD FEV1 Observed, Min” value?
The value was 880 mL.

What about the “Pre-BD FEV1 Observed, Q1” value of the same molecule?
Its value is 1215 mL.

And the “Pre-BD FEV1 Observed, Q3” value?
The value was 2295 mL.

What about the “Pre-BD FEV1 change from baseline, Max” value of the same molecule?
The value was 860 mL.

And the “Pre-BD FEV1 change from baseline, Mean ± SD” value?
Its value is 282.5 ± 410.23 mL.

What about the “Pre-BD FEV1 change from baseline, Median” value of the same molecule?
Its value is 165.0 mL.

What about the “Pre-BD FEV1 change from baseline, Min” value of the same molecule?
Its value is -60 mL.

What about the “Pre-BD FEV1 change from baseline, Q1” value of the same molecule?
The value was -5 mL.

And the “Pre-BD FEV1 change from baseline, Q3” value?
Its value is 570 mL.

And the “Pre-BD FVC % change from baseline, Max” value?
Its value is 17%.

And the “Pre-BD FVC % change from baseline, Mean ± SD” value?
The value was 4.5 ± 11.70%.

And the “Pre-BD FVC % change from baseline, Median” value?
The value was 5.1%.

What about the “Pre-BD FVC % change from baseline, Min” value of the same molecule?
Its value is −9%.

What about the “Pre-BD FVC % change from baseline, Q1” value of the same molecule?
Its value is −5%.

And the “Pre-BD FVC % change from baseline, Q3” value?
Its value is 14%.

What about the “Pre-BD FVC Observed, Max” value of the same molecule?
Its value is 3990 mL.

What about the “Pre-BD FVC Observed, Mean ± SD” value of the same molecule?
The value was 3162.5 ± 792.10 mL.

What about the “Pre-BD FVC Observed, Median” value of the same molecule?
Its value is 3175.0 mL.

What about the “Pre-BD FVC Observed, Min” value of the same molecule?
The value was 2310 mL.

What about the “Pre-BD FVC Observed, Q1” value of the same molecule?
The value was 2500 mL.

What about the “Pre-BD FVC Observed, Q3” value of the same molecule?
The value was 3825 mL.

What about the “Pre-BD FVC change from baseline, Max” value of the same molecule?
Its value is 540 mL.

And the “Pre-BD FVC change from baseline, Mean ± SD” value?
The value was 167.5 ± 353.02 mL.

What about the “Pre-BD FVC change from baseline, Median” value of the same molecule?
Its value is 185.0 mL.

What about the “Pre-BD FVC change from baseline, Min” value of the same molecule?
The value was -240 mL.

And the “Pre-BD FVC change from baseline, Q1” value?
Its value is -120 mL.

What about the “Pre-BD FVC change from baseline, Q3” value of the same molecule?
The value was 455 mL.

And the “Pre-BD Peak Flow % change from baseline, Max” value?
Its value is 500%.

What about the “Pre-BD Peak Flow % change from baseline, Mean ± SD” value of the same molecule?
The value was 136.0 ± 243.51%.

And the “Pre-BD Peak Flow % change from baseline, Median” value?
The value was 28.5%.

What about the “Pre-BD Peak Flow % change from baseline, Min” value of the same molecule?
Its value is −13%.

What about the “Pre-BD Peak Flow % change from baseline, Q1” value of the same molecule?
Its value is 4%.

And the “Pre-BD Peak Flow % change from baseline, Q3” value?
The value was 268%.

And the “Pre-BD Peak Flow Observed, Max” value?
The value was 319 L/min.

What about the “Pre-BD Peak Flow Observed, Mean ± SD” value of the same molecule?
Its value is 227.0 ± 70.68 L/min.

What about the “Pre-BD Peak Flow Observed, Median” value of the same molecule?
The value was 217.5 L/min.

What about the “Pre-BD Peak Flow Observed, Min” value of the same molecule?
Its value is 154 L/min.

And the “Pre-BD Peak Flow Observed, Q1” value?
The value was 175 L/min.

What about the “Pre-BD Peak Flow Observed, Q3” value of the same molecule?
Its value is 280 L/min.

And the “Pre-BD Peak Flow change from baseline, Max” value?
Its value is 200 L/min.

What about the “Pre-BD Peak Flow change from baseline, Mean ± SD” value of the same molecule?
The value was 70.5 ± 97.89 L/min.

What about the “Pre-BD Peak Flow change from baseline, Median” value of the same molecule?
The value was 55.5 L/min.

And the “Pre-BD Peak Flow change from baseline, Min” value?
The value was -29 L/min.

And the “Pre-BD Peak Flow change from baseline, Q1” value?
Its value is -1 L/min.

And the “Pre-BD Peak Flow change from baseline, Q3” value?
Its value is 142 L/min.
